From patent publication US20100204222A1, “PYRIDOPYRIMIDINE DERIVATIVES AS P13 KINASE INHIBITORS” (GlaxoSmithKline, LLC, priority 2007, published 2010)
pIC50: −log10 of the molar value.

Target: T1, PI3Kα (Homo sapiens, UniProt P42336)
T1 construct: His; made in house
Assay: PI3K alpha TR-FRET assay / PI3K alpha Leadseeker SPA assay
Assay type: biochemical
Details: in at least one experimental run; read-out: IC50 value against PI3Kα
Method: Compounds of the present invention were tested according to the following assays and found as inhibitors of PI3 kinases, particularly PI3Kα. The exemplified compounds were tested and found active against PI3Kα. The IC50's ranged from about 1 nM to 10 μM.
The PI3-Kinase assay has been developed and optimized from a kit produced by Upstate (Millipore). Briefly, this kit contains a biotinylated PIP3 which forms a HTRF (homogeneous time-resolved fluorescence energy transfer) complex when mixed with a Europium labeled anti-GST monoclonal antibody, a GST tagged pleckstrin homology (PH) domain, and Streptavidin-Allophycocyanin (APC). The unlabeled PIP3 produced by PI 3-Kinase activity displaces biotin-PIP3 from the complex resulting in a loss of energy transfer and thus a decrease in signal. Millipore, PI 3-Kinase (human) HTRF™ Assay, technical document associated with catalog# 33-017
Compounds are serially diluted (3-fold in 100% DMSO) across a polypropylene 120 μL mother plate from column 1 to column 12 and column 13 to column 24, leaving columns 6 and 18 containing only DMSO to yield 11 concentrations for each test compound. Once titrations are made, 0.1 μL is transferred to the assay plates (Greiner 784075). This assay plate contains three controls: column 6 with DMSO, and column 18 with alternating 20 μM wortmannin and 40 μM PIP3. […] The PIP3 control is dispensed into the plate manually via a matrix pipettor, 1 μL of 200 μM PIP3 in 1× Reaction buffer to wells 18 B, D, F, H, J, L, N, P.
The PI3-Kinase assay has been developed and optimized from a kit produced by Upstate (Millipore). The assay kit (cat: 33-017) contains seven reagents: 1) 4× Reaction Buffer, 2) PIP2 (1 mM), 3) Stop A, 4) Stop B, 5) Detection Mix A, 6) Detection Mix B, 7) Detection Mix C. In addition the following items were obtained or purchased, PI3Kinase (prepared in-house), 4×PI3K Detection Buffer (Millipore), dithiothreitol (Sigma, D-5545), Adenosine-5′-triphosphate (ATP, Sigma, A-6419), PIP3 (1,2-dioctanoyl-sn-glycero-3[phosphoinositil-3,4,5-triphosphate]tetraammonium salt (Avanti polar lipids, 850186P), DMSO (Sigma, 472301), Wortmannin (Sigma, W-1628).
Prepare 1×PI3Kinase Reaction Buffer by diluting stock 1:4 with de-ionized water, freshly prepared DTT is added at a final concentration of 5 mM on the day of use. Enzyme addition and compound preincubation is initiated by the addition of 2.5 μL of 2× enzyme solution, PI3K alpha in 1× reaction buffer, to all wells using a Multidrop Combi. Plates are incubated at room temperature for 15 minutes. Substrate addition and reaction initiation is completed by the addition of 2.5 μL of 2× substrate solution, PIP2 and ATP in 1× reaction buffer, to all wells using a Multidrop Combi. […] Incubate one hour, evaluate the HTRF signal on the Envision plate reader. […]

T1 sequence (P42336 whole entry): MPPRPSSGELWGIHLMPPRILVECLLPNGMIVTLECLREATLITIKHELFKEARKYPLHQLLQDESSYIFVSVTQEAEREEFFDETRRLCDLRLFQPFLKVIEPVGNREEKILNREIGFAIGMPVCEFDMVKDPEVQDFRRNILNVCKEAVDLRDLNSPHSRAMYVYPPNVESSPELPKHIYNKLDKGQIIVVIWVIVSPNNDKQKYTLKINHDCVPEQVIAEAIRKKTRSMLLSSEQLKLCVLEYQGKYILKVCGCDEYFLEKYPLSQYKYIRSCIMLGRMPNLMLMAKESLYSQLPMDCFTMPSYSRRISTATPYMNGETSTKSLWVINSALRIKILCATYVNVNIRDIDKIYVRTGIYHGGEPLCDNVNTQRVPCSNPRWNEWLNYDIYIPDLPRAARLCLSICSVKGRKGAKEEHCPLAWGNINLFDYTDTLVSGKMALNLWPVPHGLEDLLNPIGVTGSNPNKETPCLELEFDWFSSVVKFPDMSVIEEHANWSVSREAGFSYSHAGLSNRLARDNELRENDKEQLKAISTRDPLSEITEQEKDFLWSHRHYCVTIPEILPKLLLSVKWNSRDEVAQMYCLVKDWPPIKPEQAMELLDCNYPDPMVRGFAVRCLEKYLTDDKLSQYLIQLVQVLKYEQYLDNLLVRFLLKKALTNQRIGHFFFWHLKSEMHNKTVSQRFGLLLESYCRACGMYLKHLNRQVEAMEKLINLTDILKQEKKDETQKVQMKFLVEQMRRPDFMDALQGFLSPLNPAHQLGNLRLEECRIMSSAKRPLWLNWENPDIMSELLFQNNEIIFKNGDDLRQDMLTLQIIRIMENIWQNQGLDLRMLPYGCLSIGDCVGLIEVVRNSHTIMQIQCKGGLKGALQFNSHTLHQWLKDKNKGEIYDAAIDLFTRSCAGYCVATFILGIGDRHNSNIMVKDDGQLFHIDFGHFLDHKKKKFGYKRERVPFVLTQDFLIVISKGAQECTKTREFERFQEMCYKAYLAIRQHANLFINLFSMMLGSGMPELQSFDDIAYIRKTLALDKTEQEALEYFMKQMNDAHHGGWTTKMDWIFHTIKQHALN
T1 sequence (P27986 whole entry partner): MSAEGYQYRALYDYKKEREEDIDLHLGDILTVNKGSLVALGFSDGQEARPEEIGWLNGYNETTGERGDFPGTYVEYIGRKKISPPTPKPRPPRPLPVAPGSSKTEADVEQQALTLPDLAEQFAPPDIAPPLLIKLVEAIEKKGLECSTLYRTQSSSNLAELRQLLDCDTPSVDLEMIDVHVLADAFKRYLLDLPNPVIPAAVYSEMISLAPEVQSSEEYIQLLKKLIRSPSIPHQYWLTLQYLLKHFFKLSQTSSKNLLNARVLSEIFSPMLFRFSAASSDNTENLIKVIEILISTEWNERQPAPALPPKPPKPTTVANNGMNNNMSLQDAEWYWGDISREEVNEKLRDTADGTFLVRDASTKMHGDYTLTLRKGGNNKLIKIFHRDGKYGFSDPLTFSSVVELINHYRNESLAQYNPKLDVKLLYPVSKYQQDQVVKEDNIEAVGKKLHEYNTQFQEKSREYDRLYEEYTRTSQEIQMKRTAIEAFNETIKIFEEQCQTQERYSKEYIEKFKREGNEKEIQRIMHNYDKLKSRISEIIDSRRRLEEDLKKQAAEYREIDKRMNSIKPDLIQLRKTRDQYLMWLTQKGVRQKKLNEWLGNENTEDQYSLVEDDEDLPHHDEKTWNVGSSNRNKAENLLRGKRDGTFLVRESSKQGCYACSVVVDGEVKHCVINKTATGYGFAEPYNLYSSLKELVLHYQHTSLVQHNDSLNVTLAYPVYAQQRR

Row | SMILES | pIC50
1 | CN(C)c1ncnc2ccc(-c3cncc(NS(=O)(=O)c4ccccc4)c3)nc12 [Example 1, N-{5-[4-(dimethylamino)pyrido[3,2-d]pyrimidin-6-yl]-3-pyridinyl}benzenesulfonamide] | 8.70
2 | O=S(=O)(Nc1cncc(-c2ccc3ncnc(N4CCOCC4)c3n2)c1)c1ccccc1 [Example 2, N-{5-[4-(4-morpholinyl)pyrido[3,2-d]pyrimidin-6-yl]-3-pyridinyl}benzenesulfonamide] | 9.15
3 | COc1ncc(-c2ccc3ncnc(N4CCOCC4)c3n2)cc1NS(=O)(=O)C1CC1 [Example 5, N-{2-(methyloxy)-5-[4-(4-morpholinyl)pyrido[3,2-d]pyrimidin-6-yl]-3-pyridinyl}cyclopropanesulfonamide] | 9.30
4 | O=S(=O)(Nc1cc(-c2ccc3ncnc(N4CCOCC4)c3n2)cnc1Cl)c1ccc(F)cc1F [Example 7, N-{2-chloro-5-[4-(4-morpholinyl)pyrido[3,2-d]pyrimidin-6-yl]-3-pyridinyl}-2,4-difluorobenzenesulfonamide] | 10.70
